Here are results for 5 compounds from patent US7214495B2, “Screening method” (Takeda Pharmaceutical Company Limited, priority 2002, dated 2007).

Assay [1] deals with T1, Mouse GPR40 (Mus musculus, UniProt Q76JU9).
T1 construct: expressed in transfected cells
As to the kind of experiment: EC50 by FLIPR calcium assay in CHO cells stably expressing mouse GPR40. Format: cell-based. The note with it: intracellular calcium, FLIPR, stable CHO line; read-out: EC50 Mouse GPR40. (In general: Calcium flux is commonly read through the fluorescence of an indicator in the cells.)

The subject of the next assay is MIN6 cells. Briefly: FLIPR intracellular calcium assay using MIN6. The assay is classed as cell-based, mouse. The settings on record: 10 μM fatty acid. On the procedure:
Mouse pancreatic β cell line MIN6 incubated in a flask was scraped using PBS containing 2.5 mM EDTA and diluted so as to contain 3×10^5 cells/1 mL of the medium. The dilution was dispensed in a Black welled 96-well plate (Coster) in 100 μL/well, followed by incubation in a CO2 incubator for 2 days. The medium used was 4.5 g/l of glucose-containing Dulbecco's Modified Eagle Medium (DMEM, Invitrogen, Inc.) supplemented with 15% fetal calf serum (ThermoTrace, Inc.), 5.5 μM 2-mercaptethanol (Invitrogen, Inc.), 20 mM HEPES pH 7.3, 100 U/ml penicillin and 100 μg/ml streptomycin. To the thus prepared MIN6 cells, various fatty acids (10 μM) were added and the changes in intracellular calcium level in this case were measured using FLIPR (Molecular Device). The changes in the intracellular calcium ion level on FLIPR were assayed in accordance with the procedures described in EXAMPLE 24.

In the next assay the target is T2, Rat GPR40 (Rattus norvegicus, UniProt Q8K3T4).
T2 construct: expressed in transfected cells
T2 sequence (Q8K3T4 whole entry): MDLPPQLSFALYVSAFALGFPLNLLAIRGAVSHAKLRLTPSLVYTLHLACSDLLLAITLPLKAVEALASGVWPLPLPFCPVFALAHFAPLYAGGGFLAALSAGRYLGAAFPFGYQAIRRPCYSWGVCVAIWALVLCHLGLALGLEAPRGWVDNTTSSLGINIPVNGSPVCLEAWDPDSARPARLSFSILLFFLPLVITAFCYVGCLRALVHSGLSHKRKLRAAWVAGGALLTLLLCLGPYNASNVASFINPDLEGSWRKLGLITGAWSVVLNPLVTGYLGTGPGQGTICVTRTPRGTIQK
Briefly: EC50 by FLIPR calcium assay in CHO cells stably expressing rat GPR40. The note with it: intracellular calcium, FLIPR, stable CHO line; read-out: EC50 Rat GPR40. The assay is classed as cell-based.

A further assay concerns the target T3, human GPR40 (Homo sapiens, UniProt O14842).
T3 construct: The resulting fragment (ca. 1 kb) was introduced into vector pAKKO-111, which was used for transfection of CHO cells; expressed in transfected cells
As to the kind of experiment: cAMP production in human GPR40-expressed CHO cells. Format: cell-based. The settings on record: 10 minutes; for cAMP production activity, presence of forskolin: 2 μM forskolin. On the procedure:
(§1) Human and mouse GPR40-expressed CHO cells were incubated for 20 hours in a 96-well Plate at a density of 1×10^5/well. After the cells were washed twice with 100 μl of Assay Buffer (DMEM (Invitrogen) containing 0.1 mM IBMX (Wako Pure Chemical) and 0.1 mM Ro-20-1724 (Biomol)), DHA, solutions of linoleic acid and […] (both by SIGMA) in Assay Buffer in the presence or absence of 2 μM forskolin (Wako Pure Chemical) were added to the cells, followed by reacting at 37° C. for 10 minutes. After the reaction, the cells were lysed in accordance with the formulation of cAMP Screen (ABI) and the cAMP level in the cells was assayed.
A general note: cAMP levels reflect the balance of adenylyl cyclase and phosphodiesterase activity.

The target in assay [2] is T1, Mouse GPR40. Briefly: cAMP production in mouse GPR40-expressed CHO cells. Format: cell-based. The note with it: 10 minutes; for cAMP production activity, presence of forskolin: 2 μM forskolin. On the procedure:
as §1

Broadly, the EC50 is the concentration needed to bring the measured effect to its halfway point.

The structures appear in SMILES notation.

T1 sequence (Q76JU9 whole entry): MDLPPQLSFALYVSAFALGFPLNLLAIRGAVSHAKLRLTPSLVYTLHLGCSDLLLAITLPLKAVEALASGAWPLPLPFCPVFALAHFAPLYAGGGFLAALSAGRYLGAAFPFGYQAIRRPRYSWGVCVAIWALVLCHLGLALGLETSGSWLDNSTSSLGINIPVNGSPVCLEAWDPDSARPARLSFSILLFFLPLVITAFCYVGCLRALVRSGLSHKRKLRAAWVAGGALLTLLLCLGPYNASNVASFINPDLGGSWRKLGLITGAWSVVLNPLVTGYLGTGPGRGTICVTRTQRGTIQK
T3 sequence (O14842 whole entry, the tested form may be a part): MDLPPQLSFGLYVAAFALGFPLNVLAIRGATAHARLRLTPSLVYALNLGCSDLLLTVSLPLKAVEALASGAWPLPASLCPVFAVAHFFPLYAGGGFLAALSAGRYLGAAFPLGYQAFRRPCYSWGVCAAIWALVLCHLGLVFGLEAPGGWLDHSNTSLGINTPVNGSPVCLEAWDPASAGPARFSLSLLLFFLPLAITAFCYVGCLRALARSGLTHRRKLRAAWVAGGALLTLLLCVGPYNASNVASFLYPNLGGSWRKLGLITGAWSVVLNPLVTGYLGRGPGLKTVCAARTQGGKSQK

Consider `CCCCC/C=C\C/C=C\C/C=C\C/C=C\CCCC(=O)O` [Arachidonic acid (C20:4), Arachidonic acid], for which the EC50 on Mouse GPR40 [1] was determined as 5.4 ± 0.8 µM; on Rat GPR40, 8 ± 0.6 µM. Further, the “intracellular Ca^2+ level in MIN6” value in the assay on MIN6 cells is on record as “increased”.

With `CC/C=C\C/C=C\C/C=C\C/C=C\C/C=C\C/C=C\CCC(=O)O` [Docosahexaenoic acid (C22:6), 4Z,7Z,10Z,13Z,16Z,19Z-docosahexaenoic acid], the half-maximal effective concentration (EC50) at Mouse GPR40 [1] is 16 ± 4.7 µM; at Rat GPR40, 13 ± 1.7 µM. Further, the “intracellular Ca^2+ level in MIN6” value in the assay with MIN6 cells is recorded as “increased”. The “cAMP production activity, presence of forskolin” value at human GPR40 is given as “weakly shown”; at Mouse GPR40 [2], “no activity was shown”. The “cAMP production activity, absence of forskolin” value on human GPR40 and on Mouse GPR40 [2] was “did not show any cAMP production activity” throughout.

With `CCCCC/C=C\C/C=C\CCCCCCCC(=O)O` [Linoleic acid (C18:2), Linoleic acid], the values for the half-maximal effective concentration (EC50) at Mouse GPR40 [1] and on Rat GPR40 were 2.9 ± 0.3 µM and 4.1 ± 0.5 µM, respectively. Also, the “intracellular Ca^2+ level in MIN6” value in the assay with MIN6 cells is recorded as “increased”. Further, the “cAMP production activity, presence of forskolin” value on human GPR40 was “weakly shown”; at Mouse GPR40 [2], “no activity was shown”. In addition, the “cAMP production activity, absence of forskolin” value on human GPR40 and at Mouse GPR40 [2] was “did not show any cAMP production activity” throughout.

With `CCCCCCCC/C=C\CCCCCCCC(=O)O` [Oleic acid (C18:1), Oleic acid], the half-maximal effective concentration (EC50) stood at 2.7 ± 0.5 µM at Mouse GPR40 [1] and 3.4 ± 0.4 µM at Rat GPR40. In addition, the “intracellular Ca^2+ level in MIN6” value in the assay on MIN6 cells is given as “increased”.

On to `CCCCC/C=C\C/C=C\C/C=C\CCCCC(=O)O` [γ-Linolenic acid (C18:3), γ-Linolenic acid], for which the results for the half-maximal effective concentration (EC50) at Mouse GPR40 [1] and on Rat GPR40 were 5.2 ± 0.6 µM and 5.4 ± 1.1 µM, respectively. In the assay on MIN6 cells, the “intracellular Ca^2+ level in MIN6” value is reported as “increased”. The “cAMP production activity, presence of forskolin” value was “weakly shown” on human GPR40 and “no activity was shown” at Mouse GPR40 [2]. Besides, the “cAMP production activity, absence of forskolin” value at human GPR40 and at Mouse GPR40 [2] was “did not show any cAMP production activity” in each case.
